Patent publication US11596615B2, “Compositions and methods for treatment of insulin resistance” (Temple University—Of The Commonwealth System Of Higher …, priority 2016, dated 2023)
Entries after “also recorded” stand apart in the source; their conditions may differ. Counter-ions that a name gives are not always drawn. Like-named read-outs stand apart in the source and are kept apart here.

Tests used:
[1] = Solubility in water, DMSO and PBS solubility assay; type: physicochemical
Description: The title compound was determined to be soluble in water or DMSO at a concentration of at least 10 mM.

[2] = Liver microsome stability, human; type: in vitro ADME, Human (pooled male and female); conditions: both sexes; human liver microsomes, 1 μM compound, 0.5 mg/ml microsomal protein, 37° C., 2 mM NADPH
Description: The stability of the title compound in the presence of liver microsomes was tested at 1 μM compound and 0.5 mg/ml rat or human microsomal protein, at 37° C. with 2 mM NADPH (standard in vitro screening concentrations). […] The “t1/2” values are the maximum time employed for the respective assays.

[3] = test system: 3T3-L1 adipocytes; test: 13C6-glucose uptake in 3T3-L1 adipocytes exposed to 4HNE/H2O2 (Example 7); type: cell-based, mouse; conditions: 0.1, 1, 10 and 100 μM compound for 2 h, then 4HNE/H2O2 100 μM each 1 h; FIG. 5; dihydrochloride
Description: 3T3-L1 Mouse Embryonic Fibroblasts, ATCC® CL-173™ were differentiated to adipocytes using chemically-induced differentiation according to the ATCC guidelines. Differentiated 3T3-L1 Adipocyte 4e^6 cell were incubated overnight in glucose free media (RPMI ref. #11879 Gibco) containing 1% dialyzed fetal bovine serum (ref. #26400 Gibco) at 37° C. Cells were washed with and incubated for 1 h with glucose free media before compound exposure. Cells were incubated with and without increasing concentration (0.1, 1, 10 and 100 μM) of (S)-2-amino-6-((3-aminopropyl)amino)hexanoic acid dihydrochloride (title compound) for 2 h at 37° C., followed by 3 wash steps in glucose free phosphate buffer. […]
Cells were washed with PBS, followed by addition of glucose free DMEM medium containing 20 mM of ^13C6 glucose, 10 mM, 2-fluorodeoxyglucose (2-FDG) and insulin 10 pM (Sigma I5500) incubated for 1 hour at 37° C. 2-FDG is an inhibitor of glucose metabolism, thus preventing glucose breakdown and allowing its accumulation to further be measure and quantified. […]
The detection of the ^13C6 glucose, was carried out using a Waters Xevo™ triple quadrupole tandem mass spectrometer (Waters Corp., Manchester, UK). […] Chromatographic and mass spectrum data were collected and analyzed with Waters MassLynx v4.1 software. […]

[4] = test system: mice fed high fat diet (HFD); test: Blood glucose after glucose administration in overnourished mice (Example 10); type: in vivo, C57BL/6J mice; conditions: 10 μg/mL in drinking water, FIG. 7
From the text: Twenty-four C57BL/6J mice 8-weeks old were fed with either regular CHOW diet or high fat diet (HFD, 60% of fat content). Eight animals received CHOW diet for one week, 8 animals had been fed already with HFD for two weeks and were continuously fed with the same diet for one more week (for a total of 3 weeks feeding) and 8 animals started HFD at the time of the animal selection (2 weeks feeding). Each group was divided in half, 4 animals received regular water and the other 4 received the (S)-2-amino-6-((3-aminopropyl)amino)hexanoic acid dihydrochloride (10 μg/mL) dissolved in the water. Animals were fasted for 5 hours, weighed, and blood glucose measured by tail clipping. In addition, glucose (1 mg/g of body weight) was administered intraperitoneally. Additional glucose levels were measured at 20, 40 and 80 minutes after glucose administration. Heavy glucose was also administered intraperitoneally to further measure glucose uptake from tissues. Glucose level was taken again at 140 minutes. Animals were euthanized under anesthesia (isoflurane), and blood, liver, fat and muscle were collected.

[5] = Body weight of diet-induced (HFD) obese mice over two weeks; type: in vivo; conditions: 10 mg/kg/day
Description: The body weights of diet-induced (HFD) mice with and without (S)-2-amino-6-((3-aminopropyl)amino)hexanoic acid dihydrochloride (10 mg/kg/day) were measured over 14 days.
In contrast, poglitazone is known to cause water retention and weight gain.

`NCCCNCCCC[C@H](N)C(=O)O` [APL, (S)-2-amino-6-((3-aminopropyl)amino)hexanoic acid dihydrochloride] gave a solubility ([1]; DMSO, organic solvent or mixture, read-out: solubility in DMSO) of at least 10 mM, a solubility ([1]; phosphate buffered saline (PBS) without Ca or Mg, aqueous buffer, PBS pH 7.4 without Ca or Mg, 200 μM = maximum concentration tested, read-out: solubility in PBS) of over 0.2 mM and a solubility ([1]; water, read-out: solubility in water) of at least 10 mM. The half-life at 1 μM [2] was over 60 min, the microsomal CLint at 1 μM [2] was under 23 µL/min/mg and the “glucose uptake impairment induced by 4-HNE and H2O2” value [3] was “able to prevent the glucose uptake impairment induced by 4-HNE and H2O2, in a dose-dependent fashion; also recorded: prevented glucose uptake-impairing effect of 4-HNE and H2O2, in a dose-dependent fashion”. For the same compound, the “glucose uptake impairment induced by overnutrition (blood glucose levels)” value [4] was “effective in counteracting glucose uptake impairment induced by overnutrition”, the body weight ([5]; HFD obese mice, two weeks, FIG. 9) was “no effect on body weight” and the “toxicity (from body weight)” value ([5]; mouse, in vivo) was “lack of significant toxicity”.
